In ChEMBL document CHEMBL1201862, “PubChem BioAssay data set” (2004):
Active and inactive are the calls of the source.

Legend:
[1] = biological target: Potassium voltage-gated channel subfamily KQT member 2 (Rattus norvegicus, UniProt O88943); experiment: KCNQ2 potassium channel inhibitors, dose response, cell-based, automated electrophysiology, set II, rat KCNQ2 (AID 588637); type: functional
[2] = biological target: T1, Heat shock factor protein 1 (Mus musculus, UniProt P38532); experiment: inhibition of MG132-induced HSE-luciferase signal, confirmation, cell-based, NIH3T3, luminescence, dose retest (AID 2382); type: functional;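 further: NIH3T3 fibroblasts with HSF1-driven luciferase reporter stressed by proteasome inhibitor MG132; luminescence from HSF1-driven luciferase expression after 8 hours of MG132 stress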
T1 sequence (P38532 whole entry): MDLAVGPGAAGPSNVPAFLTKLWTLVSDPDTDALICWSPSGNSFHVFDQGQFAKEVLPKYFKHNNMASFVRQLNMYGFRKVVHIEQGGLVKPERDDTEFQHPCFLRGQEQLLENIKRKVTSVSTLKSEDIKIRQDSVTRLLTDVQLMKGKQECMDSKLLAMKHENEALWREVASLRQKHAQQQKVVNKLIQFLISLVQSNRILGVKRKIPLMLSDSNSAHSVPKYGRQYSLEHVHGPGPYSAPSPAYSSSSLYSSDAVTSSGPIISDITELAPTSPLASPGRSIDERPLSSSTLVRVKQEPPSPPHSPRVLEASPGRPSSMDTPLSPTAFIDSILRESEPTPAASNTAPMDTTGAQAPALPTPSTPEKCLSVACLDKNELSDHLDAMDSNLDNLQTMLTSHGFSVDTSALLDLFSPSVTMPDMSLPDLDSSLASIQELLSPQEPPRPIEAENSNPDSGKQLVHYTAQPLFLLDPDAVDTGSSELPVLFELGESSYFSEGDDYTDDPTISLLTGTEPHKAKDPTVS

[3] = biological target: T2, Microphthalmia-associated transcription factor (Homo sapiens, UniProt O75030); experiment: TRPM1 promoter luciferase signal decrease, dose response, MITF inhibitor project, cell-based, SK-MEL-5, cherry-picked, set 3 (AID 493073); type: functional
T2 sequence (O75030 whole entry): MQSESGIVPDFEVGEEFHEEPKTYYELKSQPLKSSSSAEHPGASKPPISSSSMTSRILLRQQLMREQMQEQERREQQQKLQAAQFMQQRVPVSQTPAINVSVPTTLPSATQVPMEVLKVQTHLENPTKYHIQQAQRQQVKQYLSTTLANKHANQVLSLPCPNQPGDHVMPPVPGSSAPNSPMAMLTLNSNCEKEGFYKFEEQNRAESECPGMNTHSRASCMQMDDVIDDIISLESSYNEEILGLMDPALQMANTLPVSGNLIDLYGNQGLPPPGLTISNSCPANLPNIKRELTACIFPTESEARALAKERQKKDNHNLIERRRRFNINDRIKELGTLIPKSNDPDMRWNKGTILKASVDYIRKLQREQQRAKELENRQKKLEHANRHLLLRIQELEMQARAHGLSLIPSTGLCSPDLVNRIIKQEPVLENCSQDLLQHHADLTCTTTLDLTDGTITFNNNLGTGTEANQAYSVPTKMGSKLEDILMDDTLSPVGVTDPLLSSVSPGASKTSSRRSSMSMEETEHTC

[4] = biological target: Palmitoyl-protein thioesterase ABHD10, mitochondrial (Mus musculus, UniProt Q6PE15); experiment: Late stage assay provider results from the probe development effort to identify inhibitors of PME-1: fluorescence-based dose response biochemical gel-based competitive Activity-Based Protein Profiling (ABPP) inhibition of ABHD10 Set 1.; type: functional
[5] = biological target: Induced myeloid leukemia cell differentiation protein Mcl-1 (Homo sapiens, UniProt Q07820); type: functional
[6] = biological target: T3, Methionyl-tRNA synthetase, putative (Trypanosoma brucei brucei, UniProt Q38C91); type: functional, Trypanosoma brucei brucei strain 927/4 GUTat10.1
[7] = Counterscreen for inhibitors of Trypanosoma brucei methionyl tRNA synthetase (MetRS): Luminescence-based cell-based high throughput dose response assay to identify compounds that are cytotoxic to Jurkat human T lymphocyte cells.; type: functional
[8] = biological target: T3, Methionyl-tRNA synthetase, putative; type: functional, Trypanosoma brucei brucei strain 927/4 GUTat10.1; remark: listed apart in the source
[9] = system: Vero; experiment: Vero cell toxicity, dose response, cytotoxicity control, plate reader, cherry-pick samples (AID 687020); type: functional, cell-based; details: Chlorocebus sabaeus
[10] = biological target: T4, Botulinum neurotoxin type F (Clostridium botulinum, UniProt P30996); experiment: High-throughput multiplex microsphere dose response for inhibitors of toxin protease, specifically Botulinum neurotoxin light chain F protease, compounds from Cherry Pick 02.; type: functional; details: read-out: EC50_MICROM
[11] = biological target: T4, Botulinum neurotoxin type F; experiment: High-throughput multiplex microsphere dose response for inhibitors of toxin protease, specifically Botulinum neurotoxin light chain F protease, compounds from Cherry Pick 01.; type: functional; details: read-out: EC50_MICROM
[12] = ARNT/TACC3 interaction disruptors, potency, confirmation, biochemical, AlphaScreen, cherry-picked samples (AID 651703); type: functional, Homo sapiens;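 further: His-tagged ARNT PAS-B domain paired with GST-TACC3 E629A dimer coactivator fragment; potency of inhibitors that break up the complex and lower AlphaScreen signal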
[13] = biological target: T5, Coagulation factor XII (Homo sapiens, UniProt P00748); type: functional;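 further: activated factor XIIa alpha cleaving a fluorogenic AMC peptide substrate; inhibitor potency from loss of enzyme activity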
T5 sequence (P00748 whole entry): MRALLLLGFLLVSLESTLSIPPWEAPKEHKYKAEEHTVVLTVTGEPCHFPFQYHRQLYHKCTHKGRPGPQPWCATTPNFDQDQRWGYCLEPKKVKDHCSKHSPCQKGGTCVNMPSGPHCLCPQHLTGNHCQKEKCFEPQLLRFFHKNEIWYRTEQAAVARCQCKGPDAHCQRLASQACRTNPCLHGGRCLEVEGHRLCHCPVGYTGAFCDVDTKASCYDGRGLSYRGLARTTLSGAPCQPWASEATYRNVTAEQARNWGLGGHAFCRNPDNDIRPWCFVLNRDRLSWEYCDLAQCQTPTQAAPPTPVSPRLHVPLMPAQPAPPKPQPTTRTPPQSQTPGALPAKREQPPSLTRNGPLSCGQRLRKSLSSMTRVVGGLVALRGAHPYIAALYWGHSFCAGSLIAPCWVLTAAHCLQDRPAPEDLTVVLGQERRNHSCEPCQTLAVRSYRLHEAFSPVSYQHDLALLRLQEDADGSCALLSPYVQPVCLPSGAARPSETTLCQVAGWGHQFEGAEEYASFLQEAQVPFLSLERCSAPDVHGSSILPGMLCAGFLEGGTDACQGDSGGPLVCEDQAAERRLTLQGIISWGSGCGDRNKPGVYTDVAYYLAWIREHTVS

[14] = biological target: T6, Sentrin-specific protease 8 (Homo sapiens, UniProt Q96LD8); type: functional
T6 sequence (Q96LD8 whole entry): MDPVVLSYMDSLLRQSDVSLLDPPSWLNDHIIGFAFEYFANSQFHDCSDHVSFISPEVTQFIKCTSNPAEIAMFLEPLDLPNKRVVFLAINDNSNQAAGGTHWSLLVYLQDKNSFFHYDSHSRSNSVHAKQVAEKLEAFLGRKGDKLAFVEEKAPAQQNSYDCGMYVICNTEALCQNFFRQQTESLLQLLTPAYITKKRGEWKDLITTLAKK

[15] = biological target: T6, Sentrin-specific protease 8; type: functional; remark: listed apart in the source
[16] = biological target: T7, Caspase-3 (Homo sapiens, UniProt P42574); experiment: Dose-response confirmation of uHTS inhibitor hits of Sentrin-Specific Protease 8 in a Caspase-3 Fluorescence assay.; type: functional
T7 sequence (P42574 whole entry): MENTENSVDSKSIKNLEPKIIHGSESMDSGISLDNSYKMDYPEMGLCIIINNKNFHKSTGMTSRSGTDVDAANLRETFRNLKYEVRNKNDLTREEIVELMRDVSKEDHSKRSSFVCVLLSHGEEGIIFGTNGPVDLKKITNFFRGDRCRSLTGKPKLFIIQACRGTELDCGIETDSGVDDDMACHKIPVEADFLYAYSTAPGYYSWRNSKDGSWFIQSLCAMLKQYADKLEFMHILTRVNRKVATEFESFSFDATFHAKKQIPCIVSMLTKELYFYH

[17] = system: Vero; experiment: Vero cell cytotoxicity, cytotoxicity control for flavivirus capping enzyme inhibitors (AID 588742); type: functional; details: Chlorocebus sabaeus
[18] = biological target: Genome polyprotein (dengue virus type 2, UniProt P29990); experiment: Dengue-2 NS5 methyltransferase inhibitors, primary screen, biochemical, confirmation dose response (AID 588689); type: functional
[19] = biological target: Ras and Rab interactor 1/Tyrosine-protein kinase ABL1 (Homo sapiens, UniProt P00519+Q13671); type: functional;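 further: biochemical TR-FRET dose-response test measuring inhibition of binding between Rin1 and Abl proteins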
[20] = biological target: T8, Corticotropin-releasing factor receptor 2/Corticotropin-releasing factor-binding protein (Homo sapiens, UniProt P24387+Q13324); experiment: Dose Response confirmation of uHTS hits for small molecule antagonists of the CRF-binding protein and CRF-R2 receptor complex.; type: functional; details: read-out: IC50_Mean
T8 sequence (Q13324 whole entry): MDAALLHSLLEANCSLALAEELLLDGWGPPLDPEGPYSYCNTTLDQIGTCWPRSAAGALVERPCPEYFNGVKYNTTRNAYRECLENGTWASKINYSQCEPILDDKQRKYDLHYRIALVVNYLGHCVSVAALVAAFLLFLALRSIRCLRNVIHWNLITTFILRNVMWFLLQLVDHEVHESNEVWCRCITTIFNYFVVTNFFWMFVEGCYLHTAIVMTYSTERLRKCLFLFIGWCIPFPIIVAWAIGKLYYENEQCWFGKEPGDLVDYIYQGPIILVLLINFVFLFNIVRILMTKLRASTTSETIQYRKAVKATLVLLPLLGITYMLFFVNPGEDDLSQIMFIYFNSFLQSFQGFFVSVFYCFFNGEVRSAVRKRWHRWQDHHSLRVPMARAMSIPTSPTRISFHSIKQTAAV
T8 sequence (P24387 whole entry): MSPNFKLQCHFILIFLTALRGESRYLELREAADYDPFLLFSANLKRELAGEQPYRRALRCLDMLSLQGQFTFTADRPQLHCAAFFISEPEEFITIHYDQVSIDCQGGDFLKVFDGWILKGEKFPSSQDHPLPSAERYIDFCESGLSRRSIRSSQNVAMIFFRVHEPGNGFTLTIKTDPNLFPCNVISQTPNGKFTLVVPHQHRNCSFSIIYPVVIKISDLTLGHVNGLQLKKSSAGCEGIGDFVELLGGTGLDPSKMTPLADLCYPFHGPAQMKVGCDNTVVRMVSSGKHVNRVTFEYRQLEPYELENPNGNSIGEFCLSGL

[21] = biological target: T8, Corticotropin-releasing factor receptor 2/Corticotropin-releasing factor-binding protein; experiment: activators of CRF receptor 2 with binding protein – uHTS hits, confirmation (AID 602473); type: functional; details: read-out: EC50_Mean
[22] = CRF-BP/CRF-R2 complex antagonists, dose response, cell-based, uHTS hits, 384-well (AID 651639); type: functional, Homo sapiens; details: read-out: IC50_Mean
[23] = biological target: T1, Heat shock factor protein 1; experiment: HSF1 potentiators in luciferase reporter cells, confirmation, cell-based, NIH3T3, luminescence, dose retest (AID 435004); type: functional;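 further: stress induced by proteasome inhibitor MG132 added 30 min after compound; luciferase reporter driven by HSF1 response element in NIH3T3 cells; actives raise luminescence as potentiators of the MG132 stress response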
[24] = system: INS1; experiment: beta cell apoptosis inhibitors, cytokine rescue, dose response, luminescence, retest (AID 449756); type: functional, cell-based; details: Rattus norvegicus;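 further: cell death triggered by IL-1 beta plus TNF-alpha plus IFN-gamma mixture; protective hits raise ATP signal compared with cytokine alone wells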
[25] = biological target: Mitochondrial peptide methionine sulfoxide reductase (Bos taurus, UniProt P54149); experiment: Absorbance-based biochemical high throughput dose response assay for activators of Methionine sulfoxide reductase A (MsrA).; type: functional
[26] = biological target: Protein Wnt-3a (Mus musculus, UniProt P27467); experiment: Wnt3a-driven reporter signaling inhibition, dose response, selectivity assay for Gli-SUFU antagonist project, Wnt-LIGHT cells, luminescence (AID 651570); type: functional; details: read-out: IC50_Mean;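 further: Wnt-LIGHT reporter cells stimulated with conditioned medium from Wnt3a-producing cells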
[27] = biological target: Hepatocyte nuclear factor 4-alpha (Homo sapiens, UniProt P41235); type: functional, cell-based;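 further: biochemical luminescence-based dose-response counterscreen measuring inhibition of HNF4 dimerization, run alongside a screen for blockers of ABHD5–perilipin-5 interaction; split luciferase complementation of HNF4 fusion proteins in cell lysate measuring dimerization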
[28] = biological target: T9, ATP-dependent translocase ABCB1 (Homo sapiens, UniProt P08183); experiment: ABCG2 efflux pump inhibitor potency, dose response, Ig-MXP3 cells, JC-1, flow cytometry, set 2 (AID 504566); type: functional; details: read-out: EC50_MICROM_;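 further: flow cytometry median green fluorescence of retained JC-1 dye; potency of efflux pump inhibition measured as rising substrate retention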
[29] = biological target: T9, ATP-dependent translocase ABCB1; experiment: ABCB1 efflux inhibitor potency, dose response, Jurkat-DNR cells, JC-1, flow cytometry, set 2 (AID 504569); type: functional; details: read-out: EC50_MICROM_;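 further: potency of pump inhibitors that raise cellular JC-1 green fluorescence up to the nicardipine level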

T3 sequence (Q38C91 whole entry): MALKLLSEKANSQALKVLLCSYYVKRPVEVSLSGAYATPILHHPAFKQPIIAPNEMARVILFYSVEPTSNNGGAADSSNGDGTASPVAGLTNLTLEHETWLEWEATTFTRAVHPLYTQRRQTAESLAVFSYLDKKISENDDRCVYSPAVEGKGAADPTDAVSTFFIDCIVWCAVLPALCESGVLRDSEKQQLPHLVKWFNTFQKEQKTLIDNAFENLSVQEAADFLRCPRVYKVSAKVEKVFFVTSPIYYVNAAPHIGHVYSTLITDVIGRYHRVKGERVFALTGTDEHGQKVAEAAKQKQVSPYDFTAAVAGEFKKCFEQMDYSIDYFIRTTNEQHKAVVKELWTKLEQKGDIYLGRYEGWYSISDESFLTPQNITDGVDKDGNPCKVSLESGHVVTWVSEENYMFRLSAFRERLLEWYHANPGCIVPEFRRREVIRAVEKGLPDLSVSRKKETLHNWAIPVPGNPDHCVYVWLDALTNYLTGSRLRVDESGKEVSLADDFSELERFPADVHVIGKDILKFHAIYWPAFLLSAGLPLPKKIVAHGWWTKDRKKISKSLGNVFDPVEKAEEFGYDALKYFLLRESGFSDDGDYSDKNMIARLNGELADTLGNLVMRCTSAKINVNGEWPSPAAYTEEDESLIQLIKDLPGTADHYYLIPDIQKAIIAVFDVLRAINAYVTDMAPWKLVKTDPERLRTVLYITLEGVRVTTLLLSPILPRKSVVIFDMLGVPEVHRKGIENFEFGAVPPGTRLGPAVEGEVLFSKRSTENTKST
T4 sequence (P30996 1-436 limits assumed): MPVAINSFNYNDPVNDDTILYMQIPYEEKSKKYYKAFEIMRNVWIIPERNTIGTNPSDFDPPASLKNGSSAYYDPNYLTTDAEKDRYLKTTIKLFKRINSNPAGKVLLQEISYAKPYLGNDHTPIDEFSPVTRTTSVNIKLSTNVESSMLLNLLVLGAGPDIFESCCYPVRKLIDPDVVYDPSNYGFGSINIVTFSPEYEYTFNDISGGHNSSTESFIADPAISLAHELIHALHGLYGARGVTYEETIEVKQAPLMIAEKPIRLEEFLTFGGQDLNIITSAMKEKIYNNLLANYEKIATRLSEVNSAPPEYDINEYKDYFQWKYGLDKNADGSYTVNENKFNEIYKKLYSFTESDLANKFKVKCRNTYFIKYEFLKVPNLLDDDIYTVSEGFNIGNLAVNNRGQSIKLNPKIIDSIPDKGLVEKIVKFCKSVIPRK
T9 sequence (P08183 whole entry): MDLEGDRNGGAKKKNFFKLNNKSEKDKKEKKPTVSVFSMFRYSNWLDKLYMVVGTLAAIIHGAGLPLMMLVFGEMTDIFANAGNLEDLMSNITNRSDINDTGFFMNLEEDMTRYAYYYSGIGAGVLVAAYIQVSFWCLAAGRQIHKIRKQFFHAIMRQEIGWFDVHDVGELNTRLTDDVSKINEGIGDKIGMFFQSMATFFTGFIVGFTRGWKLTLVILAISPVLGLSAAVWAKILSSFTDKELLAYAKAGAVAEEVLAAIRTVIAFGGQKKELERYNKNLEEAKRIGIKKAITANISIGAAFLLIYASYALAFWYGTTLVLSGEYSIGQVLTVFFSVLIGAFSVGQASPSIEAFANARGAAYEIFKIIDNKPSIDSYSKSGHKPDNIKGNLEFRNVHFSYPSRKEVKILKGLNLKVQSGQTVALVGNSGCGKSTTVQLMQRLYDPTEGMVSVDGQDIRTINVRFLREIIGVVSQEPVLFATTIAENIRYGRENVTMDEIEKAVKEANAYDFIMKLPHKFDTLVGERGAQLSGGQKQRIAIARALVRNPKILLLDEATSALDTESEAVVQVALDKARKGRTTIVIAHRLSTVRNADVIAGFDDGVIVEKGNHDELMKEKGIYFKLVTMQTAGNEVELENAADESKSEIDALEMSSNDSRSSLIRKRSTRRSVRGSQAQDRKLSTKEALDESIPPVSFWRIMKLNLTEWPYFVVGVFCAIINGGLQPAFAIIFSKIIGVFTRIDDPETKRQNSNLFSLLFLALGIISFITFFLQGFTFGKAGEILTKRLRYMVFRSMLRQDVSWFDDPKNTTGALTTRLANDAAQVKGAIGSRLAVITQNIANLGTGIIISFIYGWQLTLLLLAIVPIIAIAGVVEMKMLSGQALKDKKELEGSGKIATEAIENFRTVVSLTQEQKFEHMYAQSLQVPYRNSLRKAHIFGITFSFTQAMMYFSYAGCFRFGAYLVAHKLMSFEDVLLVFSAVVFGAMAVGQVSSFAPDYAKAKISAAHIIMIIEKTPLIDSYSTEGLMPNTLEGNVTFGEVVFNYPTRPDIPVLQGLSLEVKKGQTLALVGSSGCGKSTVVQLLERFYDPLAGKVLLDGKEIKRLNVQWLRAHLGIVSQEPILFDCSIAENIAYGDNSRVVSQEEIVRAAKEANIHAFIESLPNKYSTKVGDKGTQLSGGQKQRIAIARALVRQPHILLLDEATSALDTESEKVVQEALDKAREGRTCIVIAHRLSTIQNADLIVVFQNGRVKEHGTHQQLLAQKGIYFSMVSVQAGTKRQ
Protein Wnt-3a, sequence (P27467 whole entry, the tested form may be a part): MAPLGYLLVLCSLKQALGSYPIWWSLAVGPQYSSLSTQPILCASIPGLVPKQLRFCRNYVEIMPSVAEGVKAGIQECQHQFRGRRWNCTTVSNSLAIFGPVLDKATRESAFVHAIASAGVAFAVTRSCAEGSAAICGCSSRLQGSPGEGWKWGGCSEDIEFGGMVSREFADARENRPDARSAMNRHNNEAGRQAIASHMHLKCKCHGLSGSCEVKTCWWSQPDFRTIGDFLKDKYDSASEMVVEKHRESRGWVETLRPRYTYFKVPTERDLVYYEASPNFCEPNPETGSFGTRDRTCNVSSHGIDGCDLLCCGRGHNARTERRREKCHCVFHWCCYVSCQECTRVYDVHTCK
Hepatocyte nuclear factor 4-alpha, sequence (P41235 whole entry, the tested form may be a part): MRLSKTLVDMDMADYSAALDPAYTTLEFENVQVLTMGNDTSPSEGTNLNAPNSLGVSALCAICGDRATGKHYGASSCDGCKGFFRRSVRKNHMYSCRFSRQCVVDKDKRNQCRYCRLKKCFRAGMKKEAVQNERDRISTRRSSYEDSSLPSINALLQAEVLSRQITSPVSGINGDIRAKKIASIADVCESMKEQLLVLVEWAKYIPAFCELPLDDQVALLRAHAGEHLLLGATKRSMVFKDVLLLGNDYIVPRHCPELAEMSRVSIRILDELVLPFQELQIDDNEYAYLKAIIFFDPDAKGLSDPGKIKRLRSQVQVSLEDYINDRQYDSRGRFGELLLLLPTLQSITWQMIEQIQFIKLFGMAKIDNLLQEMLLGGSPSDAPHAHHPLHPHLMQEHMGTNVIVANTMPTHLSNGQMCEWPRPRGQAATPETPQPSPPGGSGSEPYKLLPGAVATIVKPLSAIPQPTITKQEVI
Potassium voltage-gated channel subfamily KQT member 2, sequence (O88943 whole entry): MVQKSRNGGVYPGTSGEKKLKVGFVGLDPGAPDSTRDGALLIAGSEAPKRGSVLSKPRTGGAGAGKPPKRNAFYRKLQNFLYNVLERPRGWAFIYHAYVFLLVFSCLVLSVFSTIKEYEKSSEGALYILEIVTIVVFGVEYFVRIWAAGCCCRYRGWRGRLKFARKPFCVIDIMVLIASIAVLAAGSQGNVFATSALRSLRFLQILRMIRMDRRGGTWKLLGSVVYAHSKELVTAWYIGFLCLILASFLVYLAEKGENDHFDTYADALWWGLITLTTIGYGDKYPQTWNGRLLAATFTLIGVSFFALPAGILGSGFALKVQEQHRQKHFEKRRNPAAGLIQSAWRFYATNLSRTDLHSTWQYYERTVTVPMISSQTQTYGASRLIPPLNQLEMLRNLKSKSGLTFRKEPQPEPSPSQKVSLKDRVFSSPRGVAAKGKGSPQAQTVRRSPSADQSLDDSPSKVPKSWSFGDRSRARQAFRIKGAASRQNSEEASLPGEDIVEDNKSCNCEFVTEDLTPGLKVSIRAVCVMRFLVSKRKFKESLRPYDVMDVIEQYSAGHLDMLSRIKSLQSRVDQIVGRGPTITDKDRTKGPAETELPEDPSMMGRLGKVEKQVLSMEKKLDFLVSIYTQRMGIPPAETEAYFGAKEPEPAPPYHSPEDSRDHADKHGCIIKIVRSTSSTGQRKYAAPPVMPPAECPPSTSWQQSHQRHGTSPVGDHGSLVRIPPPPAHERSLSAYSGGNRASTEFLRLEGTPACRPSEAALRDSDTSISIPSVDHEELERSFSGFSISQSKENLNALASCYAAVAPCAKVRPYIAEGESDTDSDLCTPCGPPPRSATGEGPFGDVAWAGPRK
Induced myeloid leukemia cell differentiation protein Mcl-1, sequence (Q07820 whole entry): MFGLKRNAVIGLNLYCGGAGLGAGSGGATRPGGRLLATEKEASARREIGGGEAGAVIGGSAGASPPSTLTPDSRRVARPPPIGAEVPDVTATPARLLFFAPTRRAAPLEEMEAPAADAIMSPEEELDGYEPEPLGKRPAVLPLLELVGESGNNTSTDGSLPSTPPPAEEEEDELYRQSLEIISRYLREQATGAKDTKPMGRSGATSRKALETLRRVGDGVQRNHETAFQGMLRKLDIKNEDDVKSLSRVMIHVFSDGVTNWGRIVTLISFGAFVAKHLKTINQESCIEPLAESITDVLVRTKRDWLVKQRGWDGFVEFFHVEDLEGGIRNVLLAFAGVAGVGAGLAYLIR
Palmitoyl-protein thioesterase ABHD10, mitochondrial, sequence (Q6PE15 whole entry): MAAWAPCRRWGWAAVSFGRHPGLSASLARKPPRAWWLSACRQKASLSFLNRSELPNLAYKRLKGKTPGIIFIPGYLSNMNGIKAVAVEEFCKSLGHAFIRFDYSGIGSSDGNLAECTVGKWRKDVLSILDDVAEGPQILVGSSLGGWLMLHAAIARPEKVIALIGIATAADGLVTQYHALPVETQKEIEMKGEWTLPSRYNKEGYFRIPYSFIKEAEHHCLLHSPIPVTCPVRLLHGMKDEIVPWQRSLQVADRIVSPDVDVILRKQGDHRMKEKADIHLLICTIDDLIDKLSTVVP

SMILES: COc1cccc(-c2nc(CS(=O)(=O)CC(=O)NC3CCCc4ccccc43)c(C)o2)c1 (stereo not given)
- IC50 [1]: 0.869 µM (active)

SMILES: CCOC(=O)N1C(=O)[C@@](CC)(c2ccccc2)N1C(=O)OCC
- EC50 [2]: > 195 µM (not active)
- AC50 [3]: 12.5 µM (active)
- IC50 [4]: 0.173 µM (active)

SMILES: COc1ccc(N2CCC(CNC(=O)Nc3ccc(Cl)cc3)C2)cc1 (stereo not given)
- IC50 [5]: > 54 µM (not active)
- IC50 [6]: 38.4 µM (inactive)
- IC50 [7]: 83.3 µM (inactive)
- IC50 [8]: 27.3 µM (inactive)

SMILES: Cc1cccc(N(C(=O)Cn2nnc3ccccc32)C(C(=O)NC(C)(C)C)c2ccsc2)c1 (stereo not given)
- AC50 [9]: 31.3 µM (active)

SMILES: O=C(Nc1cnc(O)nc1O)c1cc([N+](=O)[O-])cc([N+](=O)[O-])c1
- EC50 [10]: 2.7 µM (active)
- EC50 [11]: 3.9 µM (active)

SMILES: COc1cccc(CNC(=O)COC(=O)c2ccc(C(=O)c3ccccc3)cc2)c1
- AC50 [12]: 79.3 µM (active)

SMILES: COc1ccc(N2C(=O)[C@@H]3[C@H](C2=O)[C@H]2c4ccccc4C=CN2[C@@H]3C(=O)Nc2ccccc2)cc1
- IC50 [13]: > 50 µM (inactive)
- IC50 [14]: 16.7 µM (active)
- IC50 [15]: 3.72 µM (active)
- IC50 [16]: 12.4 µM (active)

SMILES: CCOc1c(Cl)cc(C(=O)Nc2ccccc2C(=O)O)cc1Cl
- CC50 [17]: > 40 µM (active)
- IC50 [18]: 52 µM (active)
- IC50 [19]: 26.8 µM (inactive)

SMILES: CC1(C)C2CC=C(/C=N/NC(=O)c3ccccc3O)C1C2 (stereo not given)
- IC50 [20]: 5.3 µM (active)
- EC50 [21]: 31.1 µM (active)
- IC50 [22]: > 20 µM (inactive)

SMILES: Nc1nc2ccccc2n1/N=C/c1ccc([N+](=O)[O-])s1
- EC50 [23]: 4.39 µM (active)
- AC50 [3]: 2.81 µM (active)
- AC50 [24]: 4.11 µM (active)
- EC50 [25]: > 104 µM (inactive)
- IC50 [26]: 15.3 µM (active)

SMILES: COC(=O)c1cc(=O)n(Cc2ccco2)/c(=N/c2ccc(F)cc2)s1
- IC50 [27]: 5.67 µM (active)

SMILES: Cc1cccc(-c2nc3nc(C)cc(N4CCN(C(=O)c5ccco5)CC4)n3n2)c1
- EC50 [28]: 6 µM (active)
- EC50 [29]: 14.6 µM (active)
